Laboratory results published in patent publication US6274715A, “Tricyclic erythromycin derivatives” (priority 1997, dated 2001).
In brackets after ≈: the same amount, converted by molar mass.

Experiments:
Format in all cases: cell-based
[1] = system: STAPHYLOCOCCUS AUREUS ATCC 6538P; test: In vitro antibacterial activity, MIC, BHI agar dilution; settings: S. aureus ATCC 6538P, 35-37° C., 20 to 24 hours, unit assumed
[2] = system: STAPHYLOCOCCUS AUREUS A5177; test: as above
[3] = system: STAPHYLOCOCCUS AUREUS A-5278; test: as above; settings: S. aureus A-5278, unit assumed
[4] = system: STAPHYLOCOCCUS AUREUS CMX 642A; test: as above; settings: S. aureus CMX 642A, unit assumed
[5] = system: STAPHYLOCOCCUS AUREUS NCTC10649M; test: as above; settings: S. aureus NCTC10649M, unit assumed
[6] = system: STAPHYLOCOCCUS AUREUS CMX 553; test: as above; settings: S. aureus CMX 553, unit assumed
[7] = system: STAPHYLOCOCCUS AUREUS 1775; test: as above; settings: S. aureus 1775, unit assumed
[8] = system: STAPHYLOCOCCUS EPIDERMIDIS 3519; settings: S. epidermidis 3519; BHI agar; unit assumed
EN[…] ATCC 8043 = test: In vitro antibacterial activity, MIC, BHI agar dilution; settings: E. faecium ATCC 8043, unit assumed
In short: (§1)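 Twelve successive aqueous dilutions of compound in Brain Heart Infusion agar were inoculated with 1:100 culture dilutions (1:10 for slow growers such as Micrococcus, Streptococcus) by Steers replicator and incubated at 35-37° C for 20 to 24 hours. MIC was the lowest concentration giving no growth, slight haze or sparse colonies versus drug-free control.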

M[…] ATCC 4698 = test: as above; settings: M. luteus ATCC 4698, unit assumed
In short: as §1

M[…] ATCC 9341 = test: as above; settings: M. luteus ATCC 9341, unit assumed
In short: as §1

STR[…] 508 = test: as above; settings: S. agalactiae CMX 508, unit assumed
In short: as §1

[9] = system: STREPTOCOCCUS BOVIS A-5169; test: as above; settings: S. bovis A-5169, unit assumed
[10] = system: STREPTOCOCCUS PYOGENES EES61; test: as above; settings: S. pyogenes EES61, unit assumed
[11] = system: STREPTOCOCCUS PYOGENES 930; test: as above; settings: S. pyogenes 930, unit assumed
[12] = system: STREPTOCOCCUS PYOGENES PIU 2548; test: as above; settings: S. pyogenes PIU 2548, unit assumed
ESCHERICHIA COLI DC-2 = test: as above; settings: E. coli DC-2, unit assumed
ESCHERICHIA COLI H560 = test: as above; settings: E. coli H560, unit assumed
ESCHERICHIA COLI KNK 437 = settings: E. coli KNK 437; BHI agar; unit assumed
[13] = system: ENTEROBACTER AEROGENES ATCC 13048; test: In vitro antibacterial activity, MIC, BHI agar dilution; settings: E. aerogenes ATCC 13048, unit assumed
[14] = system: KLEBSIELLA PNEUMONIAE ATCC 8045; test: as above; settings: K. pneumoniae ATCC 8045, unit assumed
[15] = system: PROVIDENCIA STUARTII CMX 640; settings: P. stuartii CMX 640; BHI agar; unit assumed
[16] = system: PSEUDOMONAS AERUGINOSA BMH10; test: In vitro antibacterial activity, MIC, BHI agar dilution; settings: P. aeruginosa BMH10, unit assumed
[17] = system: PSEUDOMONAS AERUGINOSA 5007; test: as above; settings: P. aeruginosa 5007, unit assumed
[18] = system: PSEUDOMONAS AERUGINOSA K799/WT; test: as above; settings: P. aeruginosa K799/WT, unit assumed
[19] = system: PSEUDOMONAS AERUGINOSA K799/61; test: as above; settings: P. aeruginosa K799/61, unit assumed
PSEUDOMONAS CEPACIA 296I = test: as above; settings: P. cepacia 296I, unit assumed
[20] = system: ACINETOBACTER CALCOACETICUS CMX 669; test: as above; settings: A. calcoaceticus CMX 669, unit assumed
[21] = system: PSEUDOMONAS AERUGINOSA DPHD-5263; test: as above; settings: P. aeruginosa DPHD-5263, unit assumed
[22] = system: PSEUDOMONAS AERUGINOSA DPHD-2862; test: as above; settings: P. aeruginosa DPHD-2862, unit assumed
CANDIDA ALBICANS CCH 442 = test: as above; settings: C. albicans CCH 442, unit assumed
[23] = system: MYCOBACTERIUM SMEGMATIS ATCC 114; test: as above; settings: M. smegmatis ATCC 114, unit assumed

Row | SMILES | MIC [1] [µg/mL] | MIC [3] [µg/mL] | MIC [4] [µg/mL] | MIC [5] [µg/mL] | MIC [6] [µg/mL] | MIC [7] [µg/mL] | MIC [8] [µg/mL] | MIC (EN[…] ATCC 8043) [µg/mL] | MIC (M[…] ATCC 4698) [µg/mL] | MIC (M[…] ATCC 9341) [µg/mL] | MIC (STR[…] 508) [µg/mL] | MIC [10] [µg/mL] | MIC [11] [µg/mL] | MIC [12] [µg/mL] | MIC (ESCHERICHIA COLI DC-2) [µg/mL] | MIC (ESCHERICHIA COLI H560) [µg/mL] | MIC (ESCHERICHIA COLI KNK 437) [µg/mL] | MIC [13] [µg/mL] | MIC [14] [µg/mL] | MIC [15] [µg/mL] | also measured
1 | CC[C@H]1OC(=O)[C@H](C)C[C@H](C)[C@@H](O[C@@H]2O[C@H](C)C[C@H](N(C)C)[C@H]2O)[C@](C)(OC)C[C@@H](C)C2=NCCN3C(=O)O[C@@]1(C)[C@H]3[C@H]2C [Example 1] | 6.2 (≈ 9.94 µM) | > 100 | 6.2 (≈ 9.94 µM) | 6.2 (≈ 9.94 µM) | 6.2 (≈ 9.94 µM) | > 100 | 12.5 (≈ 20 µM) | 0.78 (≈ 1.25 µM) | 0.39 (≈ 0.625 µM) | 0.39 (≈ 0.625 µM) | 0.39 (≈ 0.625 µM) | 0.39 (≈ 0.625 µM) | > 100 | 0.78 (≈ 1.25 µM) | 0.78 (≈ 1.25 µM) | 50 (≈ 80.1 µM) | 25 (≈ 40.1 µM) | > 100 | > 100 | 100 (≈ 160 µM) | MIC ([2]; S. aureus A5177): 6.2 µg/mL (≈ 9.94 µM); MIC [9]: 0.39 µg/mL (≈ 0.625 µM); MIC [16]: > 100 µg/mL; MIC [17]: > 100 µg/mL; MIC [18]: > 100 µg/mL; MIC [19]: > 100 µg/mL; MIC (PSEUDOMONAS CEPACIA 296I): 12.5 µg/mL (≈ 20 µM); MIC [20]: > 100 µg/mL; MIC [21]: 50 µg/mL (≈ 80.1 µM); MIC [22]: > 100 µg/mL; MIC (CANDIDA ALBICANS CCH 442): > 100 µg/mL; MIC [23]: 3.1 µg/mL (≈ 4.97 µM)
2 | CC[C@H]1OC(=O)[C@H](C)C(=O)[C@H](C)[C@@H](O[C@@H]2O[C@H](C)C[C@H](N(C)C)[C@H]2O)[C@](C)(OC)C[C@@H](C)C2=NC[C@@H](C)N3C(=O)O[C@@]1(C)[C@H]3[C@H]2C [Example 9] | 0.39 (≈ 0.598 µM) | > 100 | 0.39 (≈ 0.598 µM) | 0.2 (≈ 0.307 µM) | 0.39 (≈ 0.598 µM) | > 100 | 0.39 (≈ 0.598 µM) | 0.05 (≈ 0.0767 µM) | 0.39 (≈ 0.598 µM) | 0.1 (≈ 0.153 µM) | 0.01 (≈ 0.0153 µM) | 0.01 (≈ 0.0153 µM) | > 100 | 0.39 (≈ 0.598 µM) | 25 (≈ 38.4 µM) | 25 (≈ 38.4 µM) | 100 (≈ 153 µM) | 25 (≈ 38.4 µM) | 25 (≈ 38.4 µM) | > 100 | MIC ([2]; S. aureus A5177, unit assumed): 0.39 µg/mL (≈ 0.598 µM); MIC [16]: 100 µg/mL (≈ 153 µM); MIC [17]: > 100 µg/mL; MIC [18]: 100 µg/mL (≈ 153 µM); MIC [19]: 6.2 µg/mL (≈ 9.51 µM); MIC (PSEUDOMONAS CEPACIA 296I): > 100 µg/mL; MIC [20]: 12.5 µg/mL (≈ 19.2 µM); MIC [21]: > 100 µg/mL; MIC [22]: > 100 µg/mL; MIC (CANDIDA ALBICANS CCH 442): > 100 µg/mL; MIC [23]: 3.1 µg/mL (≈ 4.76 µM)
